Among the data in ChEMBL document CHEMBL5154940, “Effect of Chiral Purity on Adjuvanticity of Archaeol-Based Glycolipids” (J Med Chem, 2022) are Activity values, retold here.

Activity calls are given as the source filed them. The calls are words filed in the database; no cut-off is given here.

A short description of series [1]: Cytotoxicity against mouse CD8-positive T cells in Ova- immunized C57BL/6NCrl mouse assessed as reduction in cell viability at 0.3 mg administrated on day 0 and as booster dose on day 21 followed by injection of cells to immunized mouse on day 27 in presence of 10 ug ovalbumin and measured on day 28 by flow cytometry analysis. Type of series: toxicity, cell-based. The following applies: 672 h, time 28 day.

Series [2] is filed under the species Mus musculus. Description: Immuno-adjuvant activity in C57BL/6NCrl mouse assessed as increase in anti-ova total IgG level in serum at 0.3 to 1 mg in presence of 10 ug ovalbumin and measured 20 days post immunization by ELISA. The format is functional, organism-based. Particulars: dose 0.3-1 mg, time 20.0 day.
Series [3] is filed under the species Mus musculus. Description: Immuno-adjuvant activity in C57BL/6NCrl mouse assessed as increase in IFN-gamma spot forming cells measured per 10^6 splenocytes at 0.3 mg in presence of 10 ug ovalbumin incubated for 20 hrs with SIINFEKL peptide stimulant and measured on day 28 by AEC chromogen based ELISPOT analysis. The format is functional.
Series [4] is filed under the species Mus musculus. Description: Immuno-adjuvant activity in C57BL/6NCrl mouse assessed as increase in IFN-gamma spot forming cells measured per 10^6 splenocytes at 1 mg in presence of 10 ug ovalbumin incubated for 20 hrs with SIINFEKL peptide stimulant and measured on day 28 by AEC chromogen based ELISPOT analysis. Type of series: functional.
Series [5] is filed under the species Mus musculus. Description: Immuno-adjuvant activity in C57BL/6NCrl mouse assessed as increase in IFN-gamma spot forming cells measured per 10^6 splenocytes at 1 mg in presence of 1 ug ovalbumin incubated for 20 hrs with SIINFEKL peptide stimulant and measured on day 28 by AEC chromogen based ELISPOT analysis. Type of series: functional.
The nature of series [6]: Cytotoxicity against mouse CD8-positive T cells in Ova- immunized C57BL/6NCrl mouse assessed as reduction in cell viability at 1 mg administrated on day 0 and as booster dose on day 21 followed by injection of cells to immunized mouse on day 27 in presence of 1 ug ovalbumin and measured on day 28 by flow cytometry analysis. The format is toxicity, cell-based. The following applies: 672 h, time 28 day.

Series [7] is described as follows: Cytotoxicity against mouse CD8-positive T cells in Ova- immunized C57BL/6NCrl mouse assessed as reduction in cell viability at 1 mg administrated on day 0 and as booster dose on day 21 followed by injection of cells to immunized mouse on day 27 in presence of 10 ug ovalbumin and measured on day 28 by flow cytometry analysis. Type of series: toxicity, cell-based. The following applies: 672 h, time 28 day.

The species entered for series [8] is Mus musculus. Description: Immuno-adjuvant activity in C57BL/6NCrl mouse assessed as increase in anti-ova total IgG level in serum at 1 mg in presence of 1 ug ovalbumin and measured 20 days post immunization by ELISA. The format is functional, organism-based. Particulars: time 20.0 day.
The test system of series [9] is Mus musculus. Description: Immuno-adjuvant activity in C57BL/6NCrl mouse assessed as increase in anti-ova total IgG level in serum at 0.3 to 1 mg administered on day 0 and as booster dose on day 21 in presence of 10 ug ovalbumin measured on day 28 by ELISA. Type of series: functional, organism-based. The following applies: dose 0.3-1 mg, time 28.0 day.
The subject of series [10] is Mus musculus. Description: Immuno-adjuvant activity in C57BL/6NCrl mouse assessed as increase in anti-ova total IgG level in serum at 0.3 to 1 mg administered on day 0 and as booster dose on day 21 in presence of 1 ug ovalbumin measured on day 28 by ELISA. The format is functional, organism-based. Particulars: dose 0.3-1 mg, time 28.0 day.

On to `CC(C)CCCC(C)CCCC(C)CCCC(C)CCOCC(CO[C@@H]1O[C@H](CO)[C@@H](O[C@@H]2O[C@H](COS(=O)(=O)[O-])[C@H](O)[C@H](O)[C@H]2O)[C@H](O)[C@H]1O)OCCC(C)CCCC(C)CCCC(C)CCCC(C)C.[Na+]` (stereo not given in full), for which the Activity entry in series [1] was “Toxic”; in the series listed under Mus musculus [3], 6; in the series filed under Mus musculus [4] it was 40; in the series listed under Mus musculus [5], 6; in [6], “Toxic”; in series [7] it was “Toxic”. Besides, the outcome in the series filed under Mus musculus [2], in the series listed under Mus musculus [8], in the series with Mus musculus [9] and in the series on Mus musculus [10] was Active.

In the case of `CC(C)CCC[C@@H](C)CCC[C@@H](C)CCC[C@@H](C)CCOC[C@H](CO[C@@H]1O[C@H](CO)[C@@H](O[C@@H]2O[C@H](COS(=O)(=O)[O-])[C@H](O)[C@H](O)[C@H]2O)[C@H](O)[C@H]1O)OCC[C@H](C)CCC[C@H](C)CCC[C@H](C)CCCC(C)C.[Na+]`, the Activity result was “Toxic” in series [1]; 6 in the series listed under Mus musculus [3]; 40 in the series listed under Mus musculus [4]; 6 in the series filed under Mus musculus [5]; “Toxic” in series [6]; “Toxic” in series [7]. For the same compound, the outcome in the series listed under Mus musculus [2], in the series filed under Mus musculus [8], in the series with Mus musculus [9] and in the series on Mus musculus [10] was Active.

On to `CC(C)CCC[C@@H](C)CCC[C@@H](C)CCC[C@@H](C)CCOC[C@@H](CO[C@@H]1O[C@H](CO)[C@@H](O[C@@H]2O[C@H](COS(=O)(=O)[O-])[C@H](O)[C@H](O)[C@H]2O)[C@H](O)[C@H]1O)OCC[C@H](C)CCC[C@H](C)CCC[C@H](C)CCCC(C)C.[Na+]`, for which the Activity entry in series [1] is on record as “Toxic”; in the series filed under Mus musculus [3], 6; in the series listed under Mus musculus [4], 40; in the series listed under Mus musculus [5] it was 6; in series [6] it was “Toxic”; in series [7] it was “Toxic”. Further, the result in the series listed under Mus musculus [2], in the series listed under Mus musculus [8], with Mus musculus [9] and in the series on Mus musculus [10] was Active.
